Our source for the IC50 and rat_CLt values is US20170253607A1, “LONG-ACTING HIV PROTEASE INHIBITOR” (Shionogi & Co., Ltd., priority 2014, published 2017).

In data set [1] the target is HIV-1 PR (Human immunodeficiency virus type 1 group M subtype B, UniProt P04585). The data set is described as follows: HIV-protease inhibitory activity assay (FRET peptide substrate). The format is biochemical. Conditions: Test Example 1. An outline of the steps: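 Compounds were preincubated with HIV-1 PR (0.83 ng) at room temperature in pH 4.8 NaAc buffer (0.5 M NaCl, EDTA, DTT, Tween 20), then HiLyte Fluor 488/QXL 520 FRET peptide (2 μmol/L final) was added for 60 min. Fluorescence was read at 485/535 nm, and IC50 was fitted by four-parameter logistic regression.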

Data set [2] is described as follows: Evaluation of total body clearance (CLtot), intravenous administration. In kind it is in vivo, Sprague-Dawley (SD). To be noted: rat (SD), intravenous administration 0.5-10 mg/kg; CLtot = dose/AUC. An outline of the steps: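 Compounds given as a single tail-vein injection at 0.5-10 mg/kg (n=2-3), dose varying by compound. Plasma sampled at scheduled times and measured by LC/MS/MS; CLtot derived as dose divided by AUC from pharmacokinetic analysis.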

A word on the IC50: it is the midpoint of a concentration-inhibition curve. Low readings indicate higher potency, high ones lower potency. In turn, `COc1ccc(S(=O)(=O)N(CC(C)C)CC(O)C(Cc2ccc(NCc3cc4c(cc3-c3sc5c(c3C(=O)O)CC(C)(C)CC5)OCCO4)cc2)NC(=O)OC2COC3(C)OCCC23)cc1` (centres unmarked) [Compound I-651] returned an IC50 in data set [1] of 2 nM. This compound also registered a rat_CLt in data set [2] of 0.536 mL/min/kg.

Take `COc1ccc(S(=O)(=O)N(CC(C)C)CC(O)C(Cc2ccc(NCc3cc4ccccc4nc3-c3sc4c(c3C(=O)O)CC(C)(C)CC4)cc2)NC(=O)OC2COC3(C)OCCC23)cc1` (centres unmarked) [Compound I-652]: the half-maximal inhibitory concentration (IC50) in data set [1] amounted to 2.46 nM. In data set [2], this compound displayed a rat_CLt of 0.641 mL/min/kg.

In data set [1], `COc1ccc(S(=O)(=O)N(CC(C)C)CC(O)C(Cc2ccc(NCC3=C(c4sc5c(c4C(=O)O)CC(C)(C)CC5)CC(C)(C)C3)cc2)NC(=O)OC2COC3(C)OCCC23)cc1` (centres unmarked) [Compound I-662] gave an IC50 of 2.51 nM. The rat_CLt in data set [2] turned out to be 1.11 mL/min/kg.

In data set [1], `COc1ccc(S(=O)(=O)N(CC(C)C)CC(O)C(Cc2ccc(NCc3cc(-n4ccccc4=O)ccc3-c3sc4c(c3C(=O)O)CC(C)(C)CC4)cc2)NC(=O)OC2COC3(C)OCCC23)cc1` (centres unmarked) [Compound I-664] came in with an IC50 of 1.86 nM. For the same compound, in data set [2], the rat_CLt was determined as 1.5 mL/min/kg.

With `COc1ccc(S(=O)(=O)N(CC(C)C)CC(O)C(Cc2ccc(N3CCC(Cc4ccccc4-c4sc5c(c4C(=O)O)CC(C)(C)CC5)CC3)cc2)NC(=O)OC2COC3(C)OCCC23)cc1` (centres unmarked) [Compound I-666], in data set [1], the IC50 is 4.7 nM. In data set [2], this compound had a rat_CLt of 0.668 mL/min/kg.

With `C=CCNc1ccc(-c2sc3c(c2C(=O)O)CC(C)(C)CC3)c(CNc2ccc(CC(NC(=O)OC3COC4(C)OCCC34)C(O)CN(CC(C)C)S(=O)(=O)c3ccc(OC)cc3)cc2)c1` (centres unmarked) [Compound I-676], the IC50 in data set [1] amounted to 2.42 nM. In data set [2], this compound yielded a rat_CLt of 0.145 mL/min/kg.

The compound `COc1ccc(S(=O)(=O)N(CC(C)C)CC(O)C(Cc2ccc(NCc3cc(N4CCOCC4)ccc3-c3sc4c(c3C(=O)O)CC(C)(C)CC4)cc2)NC(=O)OC2COC3(C)OCCC23)cc1` (centres unmarked) [Compound I-679] registered an IC50 in data set [1] of 2.82 nM. The compound also gave a rat_CLt in data set [2] of 1.65 mL/min/kg.

In data set [1], `COc1ccc(S(=O)(=O)N(CC(C)C)CC(O)C(Cc2ccc(NCc3cc(N4CCN(C)CC4)ccc3-c3sc4c(c3C(=O)O)CC(C)(C)CC4)cc2)NC(=O)OC2COC3(C)OCCC23)cc1` (centres unmarked) [Compound I-680] gave an IC50 of 2.1 nM. The compound further returned a rat_CLt in data set [2] of 2.77 mL/min/kg.

With `COc1ccc(S(=O)(=O)N(CC(C)C)CC(O)C(Cc2ccc(NCc3cc(N4CCCCC4)ccc3-c3sc4c(c3C(=O)O)CC(C)(C)CC4)cc2)NC(=O)OC2COC3(C)OCCC23)cc1` (centres unmarked) [Compound I-689], the IC50 in data set [1] is 2.01 nM. Moreover, the rat_CLt in data set [2] is on record as 0.385 mL/min/kg.

In data set [1], `COc1ccc(S(=O)(=O)N(CC(C)C)CC(O)C(Cc2ccc(NCc3cc(N4CCC4)ccc3-c3sc4c(c3C(=O)O)CC(C)(C)CC4)cc2)NC(=O)OC2COC3(C)OCCC23)cc1` (centres unmarked) [Compound I-693] had an IC50 of 3.3 nM. For the same compound, in data set [2], the rat_CLt is listed as 0.247 mL/min/kg.

In the case of `COc1ccc(S(=O)(=O)N(CC(C)C)CC(O)C(Cc2ccc(N(C)Cc3cc(N4CCN(C)CC4)ccc3-c3sc4c(c3C(=O)O)CC(C)(C)CC4)cc2)NC(=O)OC2COC3(C)OCCC23)cc1` (centres unmarked) [Compound I-701], it took 1.49 nM to reach half-maximal inhibition in data set [1] (IC50). Further, the rat_CLt in data set [2] was 2.71 mL/min/kg.

Regarding `COc1ccc(S(=O)(=O)N(CC(C)C)CC(O)C(Cc2ccc(N(C)Cc3cc4c(cc3-c3sc5c(c3C(=O)O)CC(C)(C)CC5)OCCO4)cc2)NC(=O)OC2COC3(C)OCCC23)cc1` (centres unmarked) [Compound I-704], inhibition in data set [1] was half-maximal at 2.39 nM (IC50). Moreover, in data set [2], the rat_CLt came out at 0.724 mL/min/kg.

The compound `COc1ccc(S(=O)(=O)N(CC(C)C)CC(O)C(Cc2ccc(NCc3nc(N4CCCC4)sc3-c3ccc(-c4sc5c(c4C(=O)O)CC(C)(C)CC5)cc3)cc2)NC(=O)OC2COC3(C)OCCC23)cc1` (centres unmarked) [Compound I-714] registered an IC50 in data set [1] of 4.5 nM. For the same compound, in data set [2], the rat_CLt stood at 0.0783 mL/min/kg.
